For the assay, the target named is T1, BlaC β-lactamase (Mycobacterium tuberculosis, UniProt P9WKD3).
T1 sequence (P9WKD3 35-307): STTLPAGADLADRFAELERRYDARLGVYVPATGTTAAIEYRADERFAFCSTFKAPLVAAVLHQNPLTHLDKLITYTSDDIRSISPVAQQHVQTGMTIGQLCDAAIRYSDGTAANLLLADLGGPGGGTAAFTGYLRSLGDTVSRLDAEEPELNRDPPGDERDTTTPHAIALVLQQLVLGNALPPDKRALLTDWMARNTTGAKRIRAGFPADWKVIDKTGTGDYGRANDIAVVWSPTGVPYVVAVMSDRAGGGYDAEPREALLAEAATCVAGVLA
Nature of the assay: biochemical.

What is called Ki is the dissociation constant of the complex between target and ligand, obtained from inhibition or displacement.

Regarding `C[C@@H](O)[C@H]1C(=O)N2C(C(=O)O)=C(S[C@@H]3CN[C@H](C(=O)N(C)C)C3)[C@H](C)[C@H]12` [meropenem], the affinity, expressed as Ki, was 1100 ± 800 nM.
